According to ChEMBL document CHEMBL1148854, “Synthesis and biological evaluation of unprecedented classes of spiro-beta-lactams and azido-beta-lactams as acyl-CoA:cholesterol acyltransferase inhibitors” (Bioorg Med Chem Lett, 2007):
pIC50: −log10 of the molar value.

Legend:
[1] = target: T1, Acyl-CoA:cholesterol acyltransferase (Oryctolagus cuniculus) (UniProt Q95214); assay: Inhibition of ACAT in Albino rabbit intestinal mucosa at 10 uM
T1 sequence (whole entry): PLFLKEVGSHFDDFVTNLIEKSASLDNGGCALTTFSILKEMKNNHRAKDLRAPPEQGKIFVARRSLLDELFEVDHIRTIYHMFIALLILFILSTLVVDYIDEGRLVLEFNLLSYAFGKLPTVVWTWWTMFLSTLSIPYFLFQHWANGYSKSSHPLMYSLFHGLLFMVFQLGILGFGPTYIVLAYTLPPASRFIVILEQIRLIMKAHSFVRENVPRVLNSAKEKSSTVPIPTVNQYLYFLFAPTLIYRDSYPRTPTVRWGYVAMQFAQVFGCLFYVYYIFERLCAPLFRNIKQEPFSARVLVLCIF

[2] = target: T2, Acyl-CoA:cholesterol acyltransferase (Oryctolagus cuniculus, UniProt Q95214); assay: Inhibition of ACAT in Albino rabbit intestinal mucosa
T2 sequence (Q95214 whole entry): T1 sequence (whole entry)

| inhibition [1] [%] | pIC50 [2] | Compound |
| --- | --- | --- |
| 65 |  | CC[C@@H](N=[N+]=[N-])[C@@H](O)[C@]1(Br)C(=O)N([C@@H](C)c2ccccc2)[C@H]1c1ccccc1 |
|  | 4.77 | CC[C@H](C)C(=O)O[C@H]1C[C@@H](C)C=C2C=C[C@H](C)[C@H](CC[C@@H]3C[C@@H](O)CC(=O)O3)[C@H]21 [LOVASTATIN] |
| 60 |  | CC[C@H](N=[N+]=[N-])[C@H](O)[C@]1(Br)C(=O)N([C@@H](C)c2ccccc2)[C@H]1c1ccccc1 |
